According to publication PMC6736568, “Discovery of Novel Anti-cryptosporidial Activities From Natural Products by in vitro High-Throughput Phenotypic Screening” (Frontiers in Microbiology, 2019):
Where a name gives a salt, the structure may show the parent alone. Read-outs that look alike come from different tables or passages of the source.

Experiments:
Cryptosporidium parvum = assay: qRT-PCR assay of the growth of C. parvum in vitro in HCT-8 host cells (primary and secondary screening, EC50); assay type: cell-based; conditions: Cryptosporidium parvum, HCT-8; for inhibition at 10 µM: primary screening at 10 uM, read-out: Inhibition (%); for inhibition at 3.3 µM: secondary screening at 3.3 uM, read-out: % Inhibition (3.3 uM)
[1] = primary screening at 10 uM, treated vs control

Row | SMILES | Hs18S ΔCT (HCT-8 host cells (Hs18S); human, 41 h, 10 μM) | Hs18S ΔCT (HCT-8 host cells (Hs18S); [1]) | inhibition at 10 µM (Cryptosporidium parvum) [%] | cytotoxicity at 10 µM (in vitro) [%] | inhibition at 3.3 µM (Cryptosporidium parvum) [%] | cytotoxicity at 41 h, 10 µM (in vitro; human) [%] | Hs18S ΔCT (HCT-8 host cells (Hs18S)) | cytotoxicity at 41 h, 10 µM (in vitro) [%]
1 | O=C(O)c1ccc2c(c1)OCO2 [PIPERONYLIC ACID] |  | -0.04 | 30.3 | -3.1 |  |  |  | 
2 | NCCc1c[nH]c2ccccc12 [TRYPTAMINE] |  | -0.43 | 95.5 | -34.7 | 12 |  |  | 
3 | COc1ccc2cc1Oc1ccc(cc1)C[C@H]1c3cc(c(OC)cc3CCN1C)Oc1c(OC)c(OC)cc3c1[C@H](C2)N(C)CC3 [TETRANDRINE] | -0.04 |  | 80.4 |  | 1 | -2.5 |  | 
4 | C[C@]12CC[C@@H]3c4ccc(O)cc4CC[C@H]3[C@@H]1CCC2=O [ESTRONE] | -0.24 |  | 28.1 |  |  | -18.4 |  | 
5 | COc1ccc2c(=O)ccoc2c1 [7-METHOXYCHROMONE] | -0.34 |  | -17.1 |  |  | -26.1 |  | 
6 | O=C(/C=C/c1ccccc1)c1ccc(O[C@@H]2O[C@H](CO)[C@@H](O)[C@H](O)[C@H]2O)cc1O [2',4'-DIHYDROXYCHALCONE 4'-GLUCOSIDE] | 0.03 |  | -19.5 |  |  | 1.9 |  | 
7 | C=C(C)[C@@H]1CC[C@]2(C(=O)O)CC[C@]3(C)[C@H](CC[C@@H]4[C@@]5(C)CC[C@H](O)C(C)(C)[C@@H]5CC[C@]43C)[C@@H]12 [BETULINIC ACID] |  | -0.23 | 33 | -17.4 |  |  |  | 
8 | CN(C)[C@@H]1C(O)=C(C(N)=O)C(=O)[C@@]2(O)C(O)=C3C(=O)c4c(O)cccc4[C@@](C)(O)[C@H]3C[C@@H]12 [TETRACYCLINE HYDROCHLORIDE] |  |  | -17.3 | -24.3 |  |  | -0.31 | 
9 | COc1cc(C(C)=O)cc(OC)c1O [ACETOSYRINGONE] | -0.06 |  | -26.9 |  |  | -4 |  | 
10 | COc1ccc2cc1Oc1ccc(cc1)C[C@H]1c3c(cc4c(c3Oc3cc5c(cc3OC)CCN(C)[C@@H]5C2)OCO4)CCN1C [CEPHARANTHINE] | 0.33 |  | 16.8 |  |  | 20.5 |  | 
11 | C[C@@H]1CC[C@@]2(OC1)O[C@H]1C[C@H]3[C@@H]4CC=C5C[C@@H](O)CC[C@]5(C)[C@H]4CC[C@]3(C)[C@H]1[C@@H]2C [DIOSGENIN] |  | 0.32 | 14.7 | 19.7 |  |  |  | 
12 | O=c1cc(-c2ccccc2)oc2ccc(O)cc12 [6-HYDROXYFLAVONE] | 0.08 |  | 40 |  |  | 5.6 |  | 
13 | C[C@]12CC[C@H](O)C[C@H]1CC[C@@H]1[C@@H]2C[C@@H](O)[C@]2(C)[C@@H](C3=CC(=O)OC3)CC[C@]12O [DIGOXIGENIN] |  | 0.33 | 95.6 | 19.2 | 69 |  |  | 
14 | Cc1c(C)c2c(c(C)c1O)CCC(C)(CCCC(C)CCCC(C)CCCC(C)C)O2 (stereo not drawn) [alpha-TOCHOPHEROL] |  | 0.21 | -14.7 | 13.8 |  |  |  | 
15 | OC[C@@H]1CCCN2CCCC[C@H]12 [LUPININE] | 0.18 |  | 26.1 |  |  | 11.8 |  | 
16 | COc1cc2c(cc1O)C[C@H]1c3c(cc(O)c(OC)c3-2)CCN1C [BOLDINE] |  | -0.34 | -28.6 | -26.4 |  |  |  | 
17 | COc1ccc(Cc2nccc3cc(OC)c(OC)cc23)cc1OC [PAPAVERINE HYDROCHLORIDE] |  |  | 56.2 |  |  | 32.7 | 0.57 | 
18 | COc1cc(O)c2c(c1)C(=O)c1cc(C)cc(O)c1C2=O [PHYSCION] |  | 0.20 | -57.5 | 12.9 |  |  |  | 
19 | O=C1c2c(O)cccc2C([C@@H]2O[C@H](CO)[C@@H](O)[C@H](O)[C@H]2O)c2cc(CO)cc(O)c21 (stereo partly drawn) [ALOIN] | -0.63 |  | -0.73 |  |  | -54.3 |  | 
20 | O=C1O[C@H]([C@@H](O)CO)C(O)=C1O [ASCORBIC ACID] | 0.44 |  | 12 |  |  | 26.2 |  | 
21 | CC(C)CCC[C@@H](C)[C@H]1CC[C@H]2[C@@H]3CC[C@H]4CC(=O)CC[C@]4(C)[C@H]3CC[C@]12C [CHOLESTAN-3-ONE] |  | -0.48 | -36.7 |  |  |  |  | -39.9
22 | O=c1ccc2cc(O)c(O)cc2o1 [ESCULETIN] |  | 0.21 | -23.8 | 13.5 |  |  |  | 

The next lines start with results.

Row | Hs18S ΔCT (HCT-8 host cells (Hs18S); human, 41 h, 10 μM) | SMILES | Hs18S ΔCT (HCT-8 host cells (Hs18S); [1]) | inhibition at 10 µM (Cryptosporidium parvum) [%] | cytotoxicity at 10 µM (in vitro) [%] | inhibition at 3.3 µM (Cryptosporidium parvum) [%] | cytotoxicity at 41 h, 10 µM (in vitro; human) [%] | Hs18S ΔCT (HCT-8 host cells (Hs18S)) | cytotoxicity at 41 h, 10 µM (in vitro) [%]
23 | -0.15 | C[C@H](CCC(=O)O)[C@H]1CC[C@H]2[C@@H]3[C@@H](O)C[C@@H]4C[C@H](O)CC[C@]4(C)[C@H]3CC[C@]12C [URSODIOL] |  | -41.7 |  |  | -10.9 |  | 
24 | 0.08 | O=C(O)c1cccnc1 [NIACIN] |  | -6.7 |  |  | 5.3 |  | 
25 | -0.01 | C=CCSCC=C [DIALLYL SULFIDE] |  | 19.6 |  |  | -0.8 |  | 
26 | 1.99 | COc1ccc(-c2cc(=O)c3c(O)c(OC)c(O[C@@H]4O[C@H](CO[C@@H]5O[C@@H](C)[C@H](O)[C@@H](O)[C@H]5O)[C@@H](O)[C@H](O)[C@H]4O)cc3o2)cc1 [PECTOLINARIN] |  | -21 |  |  | 74.8 |  | 
27 | -0.43 | COc1cc(-c2coc3cc(O)c(OC)c(O)c3c2=O)cc(O)c1OC [IRIGENIN] |  | -15 |  |  | -34.9 |  | 
28 | 1.03 | COc1c(C)c2c(c(O)c1C/C=C(\C)CCC(=O)O)C(=O)OC2 [MYCOPHENOLIC ACID] |  | 44.4 |  |  | 51.1 |  | 
29 | 0.14 | O=c1cc(-c2ccccc2)oc2cc(O)cc(O)c12 [CHRYSIN] |  | 20.3 |  |  | 9.3 |  | 
30 | -0.07 | CC1(C)[C@@H](O)CC[C@]2(C)[C@H]3C(=O)C=C4[C@@H]5C[C@@](C)(C(=O)O)CC[C@]5(C)CC[C@@]4(C)[C@]3(C)CC[C@@H]12 [ENOXOLONE] |  | -8.81 |  |  | -5.3 |  | 
31 | -0.22 | COc1ccc2c(c1OC)OC[C@@H](c1ccc(OC)c(OC)c1OC)C2 [DUARTIN, DIMETHYL ETHER] |  | -13.5 |  |  | -16.4 |  | 
32 | 0.00 | CN1CC(=O)NC1=N [CREATININE] |  | 20.5 |  |  | 0.2 |  | 
33 | -0.06 | C[C@H](CCC(=O)O)[C@H]1CC[C@H]2[C@@H]3C(=O)C[C@@H]4CC(=O)CC[C@]4(C)[C@H]3CC(=O)[C@]12C [DEHYDROCHOLIC ACID] |  | -24.5 |  |  | -4.2 |  | 
34 | -0.08 | CC1=CC(=O)C(C(C)C)=CC1=O [THYMOQUINONE] |  | 3.13 |  |  | -5.8 |  | 
35 | 0.08 | NC[C@@H]1O[C@H](O[C@H]2[C@@H](O)[C@H](O[C@@H]3[C@@H](O)[C@H](N)C[C@H](N)[C@H]3O[C@H]3O[C@H](CO)[C@@H](O)[C@H](O)[C@H]3N)O[C@@H]2CO)[C@H](N)[C@@H](O)[C@@H]1O [PAROMOMYCIN SULFATE] |  | 19.7 |  |  | 5.5 |  | 
36 | 0.12 | CC[C@]12CCCN3CCc4c(n(c5ccccc45)[C@@](O)(C(=O)OC)C1)[C@@H]32 [VINCAMINE] |  | -20.8 |  |  | 8.2 |  | 
